Experiments:
KU812 leukemic cells = test: In vivo treatment of nude mice injected s.c. with KU812 leukemic cells; parameters: species or system CD1 nu/nu mice
Experimental: Seven to 9 week-old female CD1 nu/nu mice purchased at Charles River Breedin Laboratories (Calco, Italy) are kept under standard laboratory conditions according to the guidelines of the National Cancer Institutes, Milan, Italy. This study is approved by the institutional ethics committee for laboratory animals used in experimental research. KU812 bcr/abl positive cell line is injected (50×10^6 cells per animal) subcutaneously in the left flank of the animal. Oral treatment is administered through a syringe connected to a soft plastic tube introduced in esophagus (gavage). Tumor weight (TW) and total weight are monitored every 3-4 days. TW is calculated by the formula TW [mg]=(d^2×D), where d and D are the shortest and longest diameters of the tumor, respectively, measured in millimeters. Treatment is started 1-15 days after leukemic cell injection.
Nude mice are injected s.c. with 50 millions KU812 cells. Treatment is initiated after 1, 8 and 15 days respectively (groups I to III), in the presence of approximately, 50, 300 millions and 1 billion leukemic cells. […] To test this hypothesis mice in group II are treated for 11 or 18 days.
Mice are injected with KU812 cells and treatment is started 11 days later in the presence of an approximate tumor load of 400 mg.

KU812 cells = test: Tritiated thymidine uptake in vitro proliferation assay; details: erythromycin 5 to 30 μM, STI571 1 μM, AGP 1 mg/ml
bcr/abl = biological target: T1, bcr/abl (Homo sapiens, UniProt P00519); test: In vitro bcr/abl autophosphorylation in KU812 cells (anti-phosphotyrosine western blot); assay type: cell-based; details: erythromycin base 100 μM, STI571 3 μM, AGP 2 mg/ml, 1 hour
T1 construct: Endogenous bcr/abl and tyrosine-phosphorylated bcr/abl are detected with the corresponding mouse monoclonal antibody; BCR N-terminal portion (fusion partner, human BCR P11274); endogenous in cells; host or cells: KU812 (DSMZ ACC 378), in culture or as subcutaneous tumour in CD1 nu/nu mice; the other entry of the earlier key: BCR (P11274, Breakpoint cluster region protein)
T1 sequence (P00519 with tags, fused parts or gaps): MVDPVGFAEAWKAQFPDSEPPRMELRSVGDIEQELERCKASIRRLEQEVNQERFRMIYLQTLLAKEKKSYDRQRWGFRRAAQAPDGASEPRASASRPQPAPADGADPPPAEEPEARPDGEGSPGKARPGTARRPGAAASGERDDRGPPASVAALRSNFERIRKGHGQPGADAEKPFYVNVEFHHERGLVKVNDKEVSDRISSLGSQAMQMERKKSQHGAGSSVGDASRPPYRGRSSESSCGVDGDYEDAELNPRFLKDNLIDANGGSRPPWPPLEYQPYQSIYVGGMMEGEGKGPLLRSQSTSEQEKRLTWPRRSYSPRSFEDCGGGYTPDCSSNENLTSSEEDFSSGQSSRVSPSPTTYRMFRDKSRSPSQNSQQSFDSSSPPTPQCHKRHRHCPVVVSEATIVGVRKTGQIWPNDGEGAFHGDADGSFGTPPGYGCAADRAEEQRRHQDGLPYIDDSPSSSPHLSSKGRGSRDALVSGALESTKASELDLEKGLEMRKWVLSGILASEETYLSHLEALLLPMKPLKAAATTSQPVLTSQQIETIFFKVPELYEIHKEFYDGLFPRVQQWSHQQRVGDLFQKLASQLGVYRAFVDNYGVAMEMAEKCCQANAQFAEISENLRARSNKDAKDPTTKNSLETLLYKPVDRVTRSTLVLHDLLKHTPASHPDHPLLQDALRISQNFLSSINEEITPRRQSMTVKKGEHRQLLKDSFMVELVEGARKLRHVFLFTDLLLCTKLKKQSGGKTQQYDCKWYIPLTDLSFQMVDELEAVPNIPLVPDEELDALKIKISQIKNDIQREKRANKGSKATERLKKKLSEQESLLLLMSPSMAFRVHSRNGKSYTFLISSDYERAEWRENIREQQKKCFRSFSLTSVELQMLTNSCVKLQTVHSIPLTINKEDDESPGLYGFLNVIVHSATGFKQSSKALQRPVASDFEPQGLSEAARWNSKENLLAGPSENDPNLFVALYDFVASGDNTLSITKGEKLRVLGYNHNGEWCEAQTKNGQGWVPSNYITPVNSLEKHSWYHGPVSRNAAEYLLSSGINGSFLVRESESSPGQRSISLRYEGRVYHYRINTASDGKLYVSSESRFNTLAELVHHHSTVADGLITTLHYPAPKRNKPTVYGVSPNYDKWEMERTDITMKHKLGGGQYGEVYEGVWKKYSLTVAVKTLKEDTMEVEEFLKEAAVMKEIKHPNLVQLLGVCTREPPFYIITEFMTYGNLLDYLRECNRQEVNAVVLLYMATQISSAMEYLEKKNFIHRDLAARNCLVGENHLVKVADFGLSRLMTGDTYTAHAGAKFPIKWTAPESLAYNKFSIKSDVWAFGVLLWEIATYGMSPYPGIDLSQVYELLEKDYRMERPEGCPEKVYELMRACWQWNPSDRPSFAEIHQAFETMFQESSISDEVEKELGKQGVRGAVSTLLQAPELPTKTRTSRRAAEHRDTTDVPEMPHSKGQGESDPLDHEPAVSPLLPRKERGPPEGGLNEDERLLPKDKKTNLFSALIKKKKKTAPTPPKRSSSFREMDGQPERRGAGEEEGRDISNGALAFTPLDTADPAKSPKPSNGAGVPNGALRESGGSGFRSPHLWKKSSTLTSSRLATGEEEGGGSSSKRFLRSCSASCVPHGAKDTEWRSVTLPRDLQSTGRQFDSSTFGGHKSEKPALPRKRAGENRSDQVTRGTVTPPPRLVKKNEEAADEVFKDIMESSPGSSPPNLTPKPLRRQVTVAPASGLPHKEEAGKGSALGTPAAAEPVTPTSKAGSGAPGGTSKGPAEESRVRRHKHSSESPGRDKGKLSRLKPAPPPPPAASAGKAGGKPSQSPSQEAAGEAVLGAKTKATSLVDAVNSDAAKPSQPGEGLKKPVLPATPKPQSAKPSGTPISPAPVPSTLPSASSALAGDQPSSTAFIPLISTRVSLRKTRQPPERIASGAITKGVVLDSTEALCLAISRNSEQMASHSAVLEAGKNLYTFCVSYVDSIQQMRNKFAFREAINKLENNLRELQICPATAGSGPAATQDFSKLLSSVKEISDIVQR

| Effect of erythromycin on STI571 block of bcr/abl kinase activity in presence of AGP (bcr/abl) | Structure (SMILES) | Animals that developed tumor growth, non pretreated mice (KU812 leukemic cells; 160 mg/kg every 8 hours for 11 days starting 24 hours after cell injection) | Cure, group printed as 'group II' (KU812 leukemic cells; 160 mg/kg p.o. every 8 hours for 11 days, sentence follows the group II relapse rate) | Cured animals, controls not pretreated (KU812 leukemic cells; injected with KU812, treated with STI571 24 hours later) | Animals with tumor growth, pretreated mice (KU812 leukemic cells; pretreated with STI571, then 160 mg/kg every 8 hours for 11 days starting 24 hours after injection, p<0.05) | Cured animals, pretreated with STI571 (KU812 leukemic cells; pretreated, injected with KU812, treated 24 hours later, p<0.01 vs controls) | Response of relapsed tumors to re-treatment (KU812 leukemic cells; same 11 day regimen, started when tumors measurable again) | Cure, group I (KU812 leukemic cells; treatment started 1 day after cell injection, 160 mg/kg p.o. every 8 hours for 11 days) | Animals showing disappearance of the tumor / tumor free (KU812 leukemic cells; treatment started 11 days after injection, tumor load about 400 mg, every 8 hours for 18 days) | Number of animals that relapsed (KU812 leukemic cells; treatment started at day 11, 18 days of treatment, relapse between day 25 and 40) | Animals cured at last day of follow up (day 120) (KU812 leukemic cells; treatment started at day 11, tumor load about 400 mg, 18 days, p<0.01 between groups) | Cure of animals bearing large tumors (KU812 leukemic cells; tumors >400 mg at start of treatment) | Tumor regression, erythromycin alone (KU812 leukemic cells; control groups, erythromycin in methyl cellulose 5%, not shown) | Effect of erythromycin on AGP-mediated block of STI571 activity on KU812 proliferation (KU812 cells) |
| --- | --- | --- | --- | --- | --- | --- | --- | --- | --- | --- | --- | --- | --- | --- |
| – | Cc1ccc(NC(=O)c2ccc(CN3CCN(C)CC3)cc2)cc1Nc1nccc(-c2cccnc2)n1 [STI571] | 0/14 | no cure is ever observed | 16/16 | 7/14 | 8/16 | respond poorly to the new treatment | reproducibly cured | 5/15 | 4 animals | 1/13 | no animal was cured | – | – |
| STI571 activity can be restored | CC[C@H]1OC(=O)[C@H](C)[C@@H](O[C@H]2C[C@@](C)(OC)[C@@H](O)[C@H](C)O2)[C@H](C)[C@@H](O[C@@H]2O[C@H](C)C[C@H](N(C)C)[C@H]2O)[C@](C)(O)C[C@@H](C)C(=O)[C@H](C)[C@@H](O)[C@]1(C)O [erythromycin, Erythromycin] | – | – | – | – | – | – | – | – | – | – | – | do not show any evidence of tumor regression | restores sensitivity to STI571 with a clear dose response relationship |

— patent US20030125343A1, “Combinations of receptor tyrosine kinase inhibitor with an a1-acidic glycoprotein binding compound” (priority 1999, published 2003)
